According to EP1598418A1, “STABILISED COMPOSITION FOR FLUORIMETRIC, COLORIMETRIC OR CHEMOLUMINESCENT ASSAYS, KITS CONTAINING SAME AND PRODUCTION METHOD THEREOF” (BIOTOOLS BIOTECHNOLOGICAL & MEDICAL LABORATORIES, S.A., priority 2003, dated 2004):

How the values were obtained:
[1] = system: Anti-digoxygenin antibodies; test: Colorimetric assay of stabilised proteins immobilised in modified glasses (Example 10.4); assay type: biochemical, P. falciparum; conditions: vs fresh mixture
Method: To test the possibility of stabilising proteins that have been previously immobilised in pre-treated glass supports, the usual format of microarray systems, two different alternatives were tested as in the previous experiment.
Approach 1. Stabilisation of supports with previously fixed protein. Anti-digoxygenin antibodies were fixed to glass supports pre-treated with aldehyde. To do so, in each support slide 1 microlitre spots were applied of the solution of each protein at a concentration of 30 ng/µl. The slides with the immobilised protein were then coated with a thin layer of each of the stabilising mixtures and then desiccated in a vacuum oven at 25°C and 50 mbar pressure.
(§1) Approach 2. Fixation to the slides of the protein pre-mixed with the stabilising mixtures. A mixture was prepared of each of the probes with the suitable volumes of the stabilising mixtures described in Table 1. Then the mixtures of protein were applied to the various slides with the fixing conditions indicated for each glass format.
(§2) To test the viability of each slide prepared, a colorimetric assay was performed with formation of precipitate products. To do so, the slides were washed for 5 minutes in PBS 1X at room temperature to eliminate the protective layer.

[2] = system: oligonucleotides chemically modified by including biotin and/or digoxygenin groups; test: Amplification with desiccated biotin/digoxygenin oligonucleotides and colorimetric ELISA plate assay (Example 7); assay type: biochemical, oncogenic HPV; conditions: vs fresh mixture
Method: To do so, 4 oligonucleotides were designed that hybridised with the genome of region E6-E7 of oncogenic HPV species.
To do so, an ELISA microplate with a high-binding capacity to streptoavidin (Biospa) was activated following a standard fixing protocol. Then, after blocking the plate by incubation with gelatine, the amplified products of the stabilising mixtures 1, 2 and 3 described in Example 7.A were analysed by a colorimetry assay according to the following experimental process: • A.- Amplification products using an onligonucleotide marked with digoxygenin (mixture 1 in Example 7.A). The biotinated probe A11 was fixed to the plate and the amplified product was hybridised. […] The amplification product was fixed to the plate with the first biotinilate and then hybridised with the first A12 marked with digoxygenin.

[3] = system: probes marked with biotin or digoxygenin groups; test: Synthesis of digoxygenin-marked probes with desiccated mixtures and molecular hybridisation test (Example 9); conditions: vs fresh mixture
FRET probes = test: Real-time amplification with desiccated, stabilised reaction mixture with FRET probes after storage (Example 1); assay type: biochemical, P. falciparum; conditions: vs fresh mixture
[4] = system: nucleic acids immobilised in modified glasses; test: Colorimetric assay of stabilised nucleic acids immobilised in modified glasses (Example 10.3); assay type: biochemical, HPV 16; conditions: vs fresh mixture
Method: Approach 1. Stabilisation of supports with previously fixed nucleic acids. HPV specific probes were fixed to glass supports pre-treated with polylysiun, aldehyde, epoxy, superepoxy and silane. To do so, in each support slide 1 microlitre spots were applied of the solution of each oligonucleotide at a concentration of 20 µM in the conditions indicated for each glass format. The slides with the immobilised oligonucleotides were then coated with a thin layer of each of the stabilising mixtures and then desiccated in a vacuum oven at 25°C and 50 mbar pressure.
as §1, with “the nucleic acids” for “the protein”, “of oligonucleotides” for “of protein”
as §2, with “layer. Then the slides were incubated in the presence of an amplified and previously denatured HPV 16 product using the probes A11 and A12.” for “layer.”

[5] = system: streptoavidin conjugated with HRP (Str-HRP) and anti-digoxygenin conjugated with alkaline phospatase (anti-DIG-AP); test: Colorimetric ELISA plate activity test of desiccated, stabilised conjugates (Example 8); assay type: biochemical, HPV 16; conditions: vs fresh mixture
Method: In 0.2 ml amplification tubes were added 100 microlitres of a 1/250 dilution in a blocking solution of the conjugate Str-HRP (Biospa). In parallel, 0.2 ml phials were prepared in which 100 microlitres were added of a 1/250 dilution in a blocking solution of anti-DIG-AP (Sigma).
For the activity assay of the conjugate anti-DIG-AP an ELISA plate was used in which the dimples had been previously coated with streptoavidin. For the activity assay of conjugate Str-HRP a plate was used instead with dimples previously coated with anti-DIG antibodies. The amplified products were incubated in each plate to allow the immobilisation of the amplicons in the plate.

[6] = system: Molecular Beacon (MB) probe; test: Real-time amplification with desiccated, stabilised reaction mixture with Molecular Beacon probe after storage (Example 3); assay type: biochemical, P. falciparum; conditions: vs fresh mixture
[7] = system: reaction mixture with SYBR Green; test: Real-time amplification with desiccated, stabilised reaction mixture with SYBR Green after storage (Example 5); assay type: biochemical, oncogenic papillomaviruses; conditions: vs fresh mixture
Method: To test the efficiency of intercalated fluorophores such as SYBR Green included in desiccated and stabilised reaction mixtures, reaction mixtures were prepared for amplifying a 250 bp fragment corresponding to region E6-E7 of oncogenic papillomaviruses, using the same reagents as described in Example 1. In this case the unit "DNA Engine OPTICON™ 2 System" (MJ Research) was used. […] Also to each phial was added […] of SYBR Green 1 (Molecular probes).
Various tubes were prepared as described above, adding to each the suitable volume of each stabilising mixture shown in Table 1.
In parallel, in order to check the evolution of the activity of the desiccated tubes, DNA samples were amplified using a fresh mixture in the same amplification conditions.
The result of the amplification reaction was analysed in every case by inspecting the fluorescence curve and determining the crossing point, following the instructions of the equipment software, for each reaction tube both fresh and desiccated and stabilised. […] The samples of patients infected with oncogenic HPV gave positive results in every case, while patients infected with non-oncogenic HPV, or not infected with HPV, gave negative results in every case.

TaqMan probes = test: Real-time amplification with desiccated, stabilised reaction mixture with TaqMan probes after storage (Example 2); assay type: biochemical, P. falciparum; conditions: vs fresh mixture
Scorpion probes = test: Real-time amplification with desiccated, stabilised reaction mixture with Scorpion probes after storage (Example 4); assay type: biochemical, M. tuberculosis; conditions: vs fresh mixture
[8] = system: DTCS Quick Start Master Mix; test: Sequencing reaction with desiccated, stabilised mixture with fluorescent terminators after storage (Example 6); assay type: biochemical, human papillomavirus; conditions: vs fresh mixture
Method: To test the possibility of gelling reaction mixtures for sequencing nucleic acids the CEQ 200 Dye Terminator Cycle Sequencing (DTCS) Quick Start Kit (Beckman Coulter) was employed, which uses a PCR sequencing system in a single tube by incorporating four different fluorescent terminators. The sequencing reactions were later analysed in a CEQ 2000 XL DNA Analysis System (Beckman Coulter) capillary electrophoresis automatic sequencing system.
Reaction mixtures were prepared containing 4 microlitres of DTCS Quick Start Master Mix, 1 microlitre of universal primer M13-17 and the suitable volume of each stabilising mixture shown in Table 1.
In parallel, in order to check the evolution of the activity of the desiccated and stabilised tubes, the same plasmid was sequenced using a fresh sequencing mixture in standard conditions. Finally, the sequencing reactions were analysed in the CEQ 200XL system following the supplier's instructions.

[9] = system: nucleic acids immobilised in ELISA microplates; test: Amplification and colorimetric detection with stabilised nucleic acids immobilised in ELISA microplates (Example 10.1); conditions: vs fresh mixture
antidigoxygenin antibody = test: Colorimetry assay of stabilised protein immobilised in ELISA microplates (Example 10.2); assay type: biochemical, HPV; conditions: vs fresh mixture
Method: To do so each dimple was incubated with 1µg of antidigoxygenin antibody (Roche).
The amplified product was incubated for 30 minutes in the dimples with the antibody immobilised. The amplified products immobilised in the plate by the union of the digoxygenin group of the amplicons and the immobilised anti-digoxygenin group were analysed by a colorimetric assay. […] The colorimetric reaction was finally analysed by measuring absorption at 415 nm.

avidin = avidin (Gallus gallus, UniProt P02701); conditions: avidin/biotin complex; cited from earlier work
avidin, sequence (P02701 25-152): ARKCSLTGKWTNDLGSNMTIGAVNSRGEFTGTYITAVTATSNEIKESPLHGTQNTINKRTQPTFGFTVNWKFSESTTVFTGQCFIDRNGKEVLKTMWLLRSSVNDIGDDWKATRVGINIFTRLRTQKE

OC[C@H]1O[C@H](OC[C@H]2O[C@H](O[C@]3(CO)O[C@H](CO)[C@@H](O)[C@@H]3O)[C@H](O)[C@@H](O)[C@@H]2O)[C@H](O)[C@@H](O)[C@H]1O [Rafinose]
activity of stabilising mixtures ([1]; conserved at T 4 °C): + (+, weak positive, under 50% of the activity of the fresh mixture) | activity of stabilising mixtures ([2]; conserved at T 4 °C): + (+, weak positive, under 50% of the activity of the fresh mixture) | activity of stabilising mixtures ([3]; conserved at T 4 °C): + (+, weak positive, under 50% of the activity of the fresh mixture) | activity of stabilising mixtures (FRET probes; conserved at T 4 °C): + (+, weak positive, under 50% of the activity of the fresh mixture) | activity of stabilising mixtures ([4]; conserved at T 4 °C): + (+, weak positive, under 50% of the activity of the fresh mixture) | activity of stabilising mixtures ([5]; conserved at T 4 °C): + (+, weak positive, under 50% of the activity of the fresh mixture) | activity of stabilising mixtures ([6]; conserved at T 4 °C): + (+, weak positive, under 50% of the activity of the fresh mixture) | activity of stabilising mixtures ([7]; conserved at T 4 °C): + (+, weak positive, under 50% of the activity of the fresh mixture) | activity of stabilising mixtures (TaqMan probes; conserved at T 4 °C): + (+, weak positive, under 50% of the activity of the fresh mixture) | activity of stabilising mixtures (Scorpion probes; conserved at T 4 °C): + (+, weak positive, under 50% of the activity of the fresh mixture) | activity of stabilising mixtures ([8]; conserved at T 4 °C): + (+, weak positive, under 50% of the activity of the fresh mixture) | activity of stabilising mixtures ([9]; conserved at T 4 °C): + (+, weak positive, under 50% of the activity of the fresh mixture) | activity of stabilising mixtures (antidigoxygenin antibody; conserved at T 4 °C): + (+, weak positive, under 50% of the activity of the fresh mixture)

OC[C@H]1O[C@@](CO)(O[C@H]2O[C@H](CO)[C@@H](O)[C@H](O)[C@H]2O)[C@@H](O)[C@@H]1O [Sucrose]
activity of stabilising mixtures ([1]; conserved at T 4 °C): + (+, weak positive, under 50% of the activity of the fresh mixture) | activity of stabilising mixtures ([2]; conserved at T 4 °C): + (+, weak positive, under 50% of the activity of the fresh mixture) | activity of stabilising mixtures ([3]; conserved at T 4 °C): + (+, weak positive, under 50% of the activity of the fresh mixture) | activity of stabilising mixtures (FRET probes; conserved at T 4 °C): + (+, weak positive, under 50% of the activity of the fresh mixture) | activity of stabilising mixtures ([4]; conserved at T 4 °C): + (+, weak positive, under 50% of the activity of the fresh mixture) | activity of stabilising mixtures ([5]; conserved at T 4 °C): + (+, weak positive, under 50% of the activity of the fresh mixture) | activity of stabilising mixtures ([6]; conserved at T 4 °C): + (+, weak positive, under 50% of the activity of the fresh mixture) | activity of stabilising mixtures ([7]; conserved at T 4 °C): + (+, weak positive, under 50% of the activity of the fresh mixture) | activity of stabilising mixtures (TaqMan probes; conserved at T 4 °C): + (+, weak positive, under 50% of the activity of the fresh mixture) | activity of stabilising mixtures (Scorpion probes; conserved at T 4 °C): + (+, weak positive, under 50% of the activity of the fresh mixture) | activity of stabilising mixtures ([8]; conserved at T 4 °C): + (+, weak positive, under 50% of the activity of the fresh mixture) | activity of stabilising mixtures ([9]; conserved at T 4 °C): + (+, weak positive, under 50% of the activity of the fresh mixture) | activity of stabilising mixtures (antidigoxygenin antibody; conserved at T 4 °C): + (+, weak positive, under 50% of the activity of the fresh mixture)

OC[C@H]1O[C@H](O[C@H]2O[C@H](CO)[C@@H](O)[C@H](O)[C@H]2O)[C@H](O)[C@@H](O)[C@@H]1O [Trehalose]
activity of stabilising mixtures ([1]; conserved at T 4 °C): ++ (++, positive with 50-90% of the activity of the fresh mixture) | activity of stabilising mixtures ([1]; conserved at T 25 °C): + (+, weak positive, under 50% of the activity of the fresh mixture) | activity of stabilising mixtures ([2]; conserved at T 4 °C): ++ (++, positive with 50-90% of the activity of the fresh mixture) | activity of stabilising mixtures ([2]; conserved at T 25 °C): + (+, weak positive, under 50% of the activity of the fresh mixture) | activity of stabilising mixtures ([3]; conserved at T 4 °C): ++ (++, positive with 50-90% of the activity of the fresh mixture) | activity of stabilising mixtures ([3]; conserved at T 25 °C): + (+, weak positive, under 50% of the activity of the fresh mixture) | activity of stabilising mixtures (FRET probes; conserved at T 4 °C): ++ (++, positive with 50-90% of the activity of the fresh mixture) | activity of stabilising mixtures (FRET probes; conserved at T 25 °C): + (+, weak positive, under 50% of the activity of the fresh mixture) | activity of stabilising mixtures ([4]; conserved at T 4 °C): ++ (++, positive with 50-90% of the activity of the fresh mixture) | activity of stabilising mixtures ([4]; conserved at T 25 °C): + (+, weak positive, under 50% of the activity of the fresh mixture) | activity of stabilising mixtures ([5]; conserved at T 25 °C): + (+, weak positive, under 50% of the activity of the fresh mixture) | activity of stabilising mixtures ([6]; conserved at T 4 °C): ++ (++, positive with 50-90% of the activity of the fresh mixture) | activity of stabilising mixtures ([6]; conserved at T 25 °C): + (+, weak positive, under 50% of the activity of the fresh mixture) | activity of stabilising mixtures ([7]; conserved at T 25 °C): + (+, weak positive, under 50% of the activity of the fresh mixture) | activity of stabilising mixtures (TaqMan probes; conserved at T 4 °C): ++ (++, positive with 50-90% of the activity of the fresh mixture) | activity of stabilising mixtures (TaqMan probes; conserved at T 25 °C): + (+, weak positive, under 50% of the activity of the fresh mixture) | activity of stabilising mixtures (Scorpion probes; conserved at T 25 °C): + (+, weak positive, under 50% of the activity of the fresh mixture) | activity of stabilising mixtures ([8]; conserved at T 4 °C): ++ (++, positive with 50-90% of the activity of the fresh mixture) | activity of stabilising mixtures ([8]; conserved at T 25 °C): + (+, weak positive, under 50% of the activity of the fresh mixture) | activity of stabilising mixtures ([9]; conserved at T 4 °C): ++ (++, positive with 50-90% of the activity of the fresh mixture) | activity of stabilising mixtures ([9]; conserved at T 25 °C): + (+, weak positive, under 50% of the activity of the fresh mixture) | activity of stabilising mixtures (antidigoxygenin antibody; conserved at T 4 °C): ++ (++, positive with 50-90% of the activity of the fresh mixture) | activity of stabilising mixtures (antidigoxygenin antibody; conserved at T 25 °C): + (+, weak positive, under 50% of the activity of the fresh mixture)

O=C(O)CCCC[C@@H]1SC[C@@H]2NC(=O)N[C@@H]21 [biotin, Biotin]
dissociation energy (avidin): 21 kcal/mol
